Assay results taken from PubChem BioAssay (NCI).
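Compound exposure: 48 hours, 5 concentrations, 96-well plates. TGI marks complete inhibition of growth.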

Columns and labels:
Assay in all cases: NCI tumour cell line growth inhibition, 48 h
NCI-H23 lung = system: NCI-H23 lung
HOP-18 NSCLC = system: HOP-18 NSCLC
HCC-2998 colon = system: HCC-2998 colon
HOP-92 NSCLC = system: HOP-92 NSCLC
SN12C renal = system: SN12C renal
SF-268 CNS = system: SF-268 CNS
CAKI-1 renal = system: CAKI-1 renal
SK-MEL-5 melanoma = system: SK-MEL-5 melanoma
NCI/ADR-RES ovarian = system: NCI/ADR-RES ovarian
M19-MEL melanoma = system: M19-MEL melanoma
SK-MEL-2 melanoma = system: SK-MEL-2 melanoma
DMS 273 small cell lung = system: DMS 273 small cell lung
SF-295 CNS = system: SF-295 CNS
HCT-15 colon = system: HCT-15 colon
NCI-H226 lung = system: NCI-H226 lung
SNB-75 CNS = system: SNB-75 CNS
SN12K1 renal = system: SN12K1 renal
XF 498 CNS = system: XF 498 CNS
DMS 114 small cell lung = system: DMS 114 small cell lung
SF-539 CNS = system: SF-539 CNS
MCF7 breast = system: MCF7 breast
HT29 colon = system: HT29 colon
UACC-62 melanoma = system: UACC-62 melanoma
A549 NSCLC = system: A549 NSCLC
HCT-116 colon = system: HCT-116 colon
EKVX NSCLC = system: EKVX NSCLC
U251 CNS = system: U251 CNS
OVCAR-8 ovarian = system: OVCAR-8 ovarian
SK-MEL-28 melanoma = system: SK-MEL-28 melanoma
KM20L2 colon = system: KM20L2 colon
SW-620 colon = system: SW-620 colon
SK-OV-3 ovarian = system: SK-OV-3 ovarian
LOX IMVI melanoma = system: LOX IMVI melanoma
P388 leukemia = system: P388 leukemia
SNB-78 CNS = system: SNB-78 CNS
OVCAR-3 ovarian = system: OVCAR-3 ovarian
HL-60(TB) leukemia = system: HL-60(TB) leukemia
K-562 leukemia = system: K-562 leukemia
CCRF-CEM leukemia = system: CCRF-CEM leukemia
UACC-257 melanoma = system: UACC-257 melanoma
MOLT-4 leukemia = system: MOLT-4 leukemia
NCI-H460 lung = system: NCI-H460 lung
OVCAR-4 ovarian = system: OVCAR-4 ovarian
HOP-62 NSCLC = system: HOP-62 NSCLC
KM12 colon = system: KM12 colon
RPMI-8226 leukemia = system: RPMI-8226 leukemia
IGROV1 ovarian = system: IGROV1 ovarian
A498 renal = system: A498 renal
DLD-1 colon = system: DLD-1 colon
OVCAR-5 ovarian = system: OVCAR-5 ovarian
NCI-H522 lung = system: NCI-H522 lung
COLO 205 colon = system: COLO 205 colon
UO-31 renal = system: UO-31 renal
SNB-19 CNS = system: SNB-19 CNS
MALME-3M melanoma = system: MALME-3M melanoma
P388/ADR leukemia = system: P388/ADR leukemia
RXF 393 renal = system: RXF 393 renal
TK-10 renal = system: TK-10 renal
RXF-631 renal = system: RXF-631 renal
M14 melanoma = system: M14 melanoma
ACHN renal = system: ACHN renal
LXFL 529 NSCLC = system: LXFL 529 NSCLC
786-0 renal = system: 786-0 renal
SR leukemia = system: SR leukemia

## C=C1C(=O)O[C@@H]2[C@H](O)[C@@H](C)[C@@H]3C=CC(=O)[C@@]3(C)[C@@H](OC(=O)/C(C)=C/C)[C@H]12
NCI-H23 lung
  TGI: 2.57 µM
HOP-18 NSCLC
  TGI: 4.75 µM
HCC-2998 colon
  TGI: 4.19 µM
HOP-92 NSCLC
  TGI: 1.78 µM
SN12C renal
  TGI: 2.52 µM
SF-268 CNS
  TGI: 3.84 µM
CAKI-1 renal
  TGI: 2.02 µM
SK-MEL-5 melanoma
  TGI: 4.43 µM
NCI/ADR-RES ovarian
  TGI: 5.39 µM
M19-MEL melanoma
  TGI: 1.22 µM
SK-MEL-2 melanoma
  TGI: 2.78 µM
DMS 273 small cell lung
  TGI: 3.56 µM
SF-295 CNS
  TGI: 8.34 µM
HCT-15 colon
  TGI: 1.06 µM
NCI-H226 lung
  TGI: 8.97 µM
SNB-75 CNS
  TGI: 3.63 µM
SN12K1 renal
  TGI: 0.688 µM
XF 498 CNS
  TGI: 0.867 µM
DMS 114 small cell lung
  TGI: 3.63 µM
SF-539 CNS
  TGI: 1.96 µM
MCF7 breast
  TGI: 5.15 µM
HT29 colon
  TGI: 4.15 µM
UACC-62 melanoma
  TGI: 1.11 µM
A549 NSCLC
  TGI: 13.4 µM
HCT-116 colon
  TGI: 1.03 µM
EKVX NSCLC
  TGI: 1.93 µM
U251 CNS
  TGI: 5.26 µM
OVCAR-8 ovarian
  TGI: 2.72 µM
SK-MEL-28 melanoma
  TGI: 1.34 µM
KM20L2 colon
  TGI: 5.54 µM
SW-620 colon
  TGI: 1.14 µM
SK-OV-3 ovarian
  TGI: 14.1 µM
LOX IMVI melanoma
  TGI: 2.88 µM
P388 leukemia
  TGI: 2.74 µM
SNB-78 CNS
  TGI: 8.03 µM
OVCAR-3 ovarian
  TGI: 1.69 µM
HL-60(TB) leukemia
  TGI: 9.82 µM
K-562 leukemia
  TGI: 3.48 µM
CCRF-CEM leukemia
  TGI: 2.05 µM
UACC-257 melanoma
  TGI: 1.87 µM
MOLT-4 leukemia
  TGI: 2.09 µM
NCI-H460 lung
  TGI: 1.93 µM
OVCAR-4 ovarian
  TGI: 3.05 µM
HOP-62 NSCLC
  TGI: 15.3 µM
KM12 colon
  TGI: 7.21 µM
RPMI-8226 leukemia
  TGI: 0.473 µM
IGROV1 ovarian
  TGI: 2.02 µM
A498 renal
  TGI: 6.88 µM
DLD-1 colon
  TGI: 1.31 µM
OVCAR-5 ovarian
  TGI: 8.31 µM
NCI-H522 lung
  TGI: 0.258 µM
COLO 205 colon
  TGI: 1.11 µM
UO-31 renal
  TGI: 10.1 µM
SNB-19 CNS
  TGI: 6.92 µM
MALME-3M melanoma
  TGI: 1.49 µM
P388/ADR leukemia
  TGI: 1.08 µM
RXF 393 renal
  TGI: 1.14 µM

## COC(=O)C1Cc2c(n(C)c3ccccc23)C(CCC(=O)O)N1Cc1ccccc1 (stereo not given)
NCI-H23 lung
  TGI: 80.7 µM
HCC-2998 colon
  TGI: > 100 µM
HOP-92 NSCLC
  TGI: 60.2 µM
TK-10 renal
  TGI: > 100 µM
SN12C renal
  TGI: > 100 µM
SF-268 CNS
  TGI: 69.9 µM
CAKI-1 renal
  TGI: > 100 µM
SK-MEL-5 melanoma
  TGI: 79.5 µM
M19-MEL melanoma
  TGI: > 100 µM
SK-MEL-2 melanoma
  TGI: > 100 µM
DMS 273 small cell lung
  TGI: > 100 µM
SF-295 CNS
  TGI: 93.9 µM
HCT-15 colon
  TGI: > 100 µM
NCI-H226 lung
  TGI: 75.2 µM
SNB-75 CNS
  TGI: 89.7 µM
XF 498 CNS
  TGI: 72.5 µM
RXF-631 renal
  TGI: > 100 µM
DMS 114 small cell lung
  TGI: 93.2 µM
SF-539 CNS
  TGI: 58 µM
HT29 colon
  TGI: > 100 µM
UACC-62 melanoma
  TGI: 77.1 µM
M14 melanoma
  TGI: 62.2 µM
A549 NSCLC
  TGI: > 100 µM
HCT-116 colon
  TGI: 43.2 µM
EKVX NSCLC
  TGI: > 100 µM
U251 CNS
  TGI: > 100 µM
OVCAR-8 ovarian
  TGI: > 100 µM
SK-MEL-28 melanoma
  TGI: 58.2 µM
KM20L2 colon
  TGI: > 100 µM
SW-620 colon
  TGI: > 100 µM
ACHN renal
  TGI: 81.8 µM
SK-OV-3 ovarian
  TGI: > 100 µM
LOX IMVI melanoma
  TGI: > 100 µM
SNB-78 CNS
  TGI: > 100 µM
LXFL 529 NSCLC
  TGI: > 100 µM
OVCAR-3 ovarian
  TGI: 53.4 µM
HL-60(TB) leukemia
  TGI: > 100 µM
K-562 leukemia
  TGI: > 100 µM
CCRF-CEM leukemia
  TGI: > 100 µM
UACC-257 melanoma
  TGI: > 100 µM
MOLT-4 leukemia
  TGI: > 100 µM
NCI-H460 lung
  TGI: 80.7 µM
OVCAR-4 ovarian
  TGI: > 100 µM
HOP-62 NSCLC
  TGI: > 100 µM
KM12 colon
  TGI: 81.4 µM
RPMI-8226 leukemia
  TGI: 75.2 µM
IGROV1 ovarian
  TGI: > 100 µM
A498 renal
  TGI: 76.5 µM
786-0 renal
  TGI: > 100 µM
DLD-1 colon
  TGI: > 100 µM
OVCAR-5 ovarian
  TGI: > 100 µM
NCI-H522 lung
  TGI: 91.2 µM
COLO 205 colon
  TGI: 71.9 µM
UO-31 renal
  TGI: 51.4 µM
SNB-19 CNS
  TGI: 97.3 µM
MALME-3M melanoma
  TGI: > 100 µM
RXF 393 renal
  TGI: 89.7 µM

## O=C1N2Cc3c4ccc5c3CN3C(=O)N6Cc7c(ccc(c7CN1C6(c1ccccc1)C23c1ccccc1)OCCOCCNCCOCCO4)OCCOCCNCCOCCO5 (stereo not given)
NCI-H23 lung
  TGI: > 100 µM
HOP-18 NSCLC
  TGI: 28.9 µM
HCC-2998 colon
  TGI: > 100 µM
HOP-92 NSCLC
  TGI: 57.4 µM
TK-10 renal
  TGI: 56 µM
SR leukemia
  TGI: > 100 µM
SN12C renal
  TGI: 89.1 µM
SF-268 CNS
  TGI: > 100 µM
CAKI-1 renal
  TGI: > 100 µM
SK-MEL-5 melanoma
  TGI: > 100 µM
M19-MEL melanoma
  TGI: > 100 µM
SK-MEL-2 melanoma
  TGI: > 100 µM
DMS 273 small cell lung
  TGI: > 100 µM
SF-295 CNS
  TGI: > 100 µM
HCT-15 colon
  TGI: 91.3 µM
NCI-H226 lung
  TGI: > 100 µM
SNB-75 CNS
  TGI: > 100 µM
XF 498 CNS
  TGI: > 100 µM
RXF-631 renal
  TGI: > 100 µM
DMS 114 small cell lung
  TGI: > 100 µM
SF-539 CNS
  TGI: > 100 µM
HT29 colon
  TGI: > 100 µM
UACC-62 melanoma
  TGI: > 100 µM
M14 melanoma
  TGI: 57.8 µM
A549 NSCLC
  TGI: > 100 µM
HCT-116 colon
  TGI: > 100 µM
EKVX NSCLC
  TGI: > 100 µM
U251 CNS
  TGI: > 100 µM
OVCAR-8 ovarian
  TGI: > 100 µM
SK-MEL-28 melanoma
  TGI: > 100 µM
KM20L2 colon
  TGI: > 100 µM
SW-620 colon
  TGI: 50.8 µM
ACHN renal
  TGI: 47.9 µM
SK-OV-3 ovarian
  TGI: > 100 µM
SNB-78 CNS
  TGI: > 100 µM
LXFL 529 NSCLC
  TGI: 53.7 µM
OVCAR-3 ovarian
  TGI: > 100 µM
K-562 leukemia
  TGI: > 100 µM
CCRF-CEM leukemia
  TGI: > 100 µM
UACC-257 melanoma
  TGI: 69 µM
MOLT-4 leukemia
  TGI: > 100 µM
NCI-H460 lung
  TGI: > 100 µM
OVCAR-4 ovarian
  TGI: > 100 µM
HOP-62 NSCLC
  TGI: > 100 µM
KM12 colon
  TGI: > 100 µM
RPMI-8226 leukemia
  TGI: 92.2 µM
IGROV1 ovarian
  TGI: > 100 µM
A498 renal
  TGI: > 100 µM
786-0 renal
  TGI: 97.4 µM
DLD-1 colon
  TGI: > 100 µM
OVCAR-5 ovarian
  TGI: > 100 µM
NCI-H522 lung
  TGI: > 100 µM
UO-31 renal
  TGI: > 100 µM
SNB-19 CNS
  TGI: > 100 µM
MALME-3M melanoma
  TGI: 59.6 µM
RXF 393 renal
  TGI: > 100 µM
